Assay results from article PMC7125190, “Native/citrullinated LL37-specific T-cells help autoantibody production in Systemic Lupus Erythematosus” (Scientific Reports, 2020).

Tests used:
[1] = system: CD4 T-cells in PBMC cultures; assay: TFH/Th17 marker expression by flow cytometry (CXCR5, Bcl-6, Ror-γt); format: cell-based, human; settings: for Bcl-6 expression / Ror-ɣt expression: CD38hi T-cells, 48 hours; for Bcl-6 expression: SLE but not psoriasis; for Ror-ɣt expression: both SLE and psoriasis; for CXCR5 expression by proliferating T-cells: SLE (but not in psoriasis)
Method: (§1) PBMCs were purified, from EDTA-treated blood, on Ficoll-Hypaque (Pharmacia Fine Chemicals, Uppsala, Sweden) were incubated (10^5 cells/well) in 96-well-flat-bottom-microplates (BD) in T cell-medium (RPMI 1640, 10% heat-inactivated human serum, HS, Gibco), 2 mM L-glutamine, 10 U/mL penicillin, and 100 μg/mL streptomycin), with/without peptides. We performed assays on fresh cells, within 1-to-3 hours from collection, or on PBMCs frozen in 90% FCS-10%DMSO, whose viability we assessed by Trypan blue exclusion, at inverted microscope. Recovery of live cells was between 65 and 85 % of the frozen number. At day3 and 5, BrdU was added (1 μg/mL). BrdU-incorporation was detected by APC-labeled anti-BrdU antibody (BD Pharmingen), after surface staining by flow cytometry. Internal control for T-cell viability and proliferation was PHA treatment (2 μg/mL). SI for proliferation was calculated by dividing percent of BrdU-staining in the presence of each peptide used to stimulate cells by percent of BrdU-staining in the absence of peptide stimulation. SI for proliferation was considered positive when>3. This cut-off was obtained by calculating the mean+2DS [1.5 + 2 (0.6)] (of the stimulation indexes calculated as above) of the proliferation of HD.
Basal % of proliferation was set using, as reference, an isotype matched antibody staining (APC-isotype control and) and never exceed 5% of cell proliferation value (background proliferation).
Assays were repeated twice with each patient. In rare cases in which background proliferation exceed antigen-specific proliferation the assay was repeated three times. Concomitant phenotype analysis of LL37-responder T-cells included staining for CD4, CD8, CXCR5, PD1, ICOS, CCR6. Ror-ɣt and Bcl-6 were measured by intracellular staining and flow cytometry, after 48 hours culture with LL37 or control antigen, and were analyzed on CD38highCD4 T-cells. […]

[2] = system: SLE/CLE CD4+ T-cell clones; assay: T-cell clone reactivity (BrdU, HLA-matched B-LCLs pulsed with peptide); format: cell-based, human; settings: clones from one SLE and one CLE patient
Method: as §1, with “HD. […]” for “HD.”
Assays were repeated twice with each patient. […] Ror-ɣt and Bcl-6 were measured by intracellular staining and flow cytometry, after 48 hours culture with LL37 or control antigen, and were analyzed on CD38highCD4 T-cells. […]
PBMCs were stimulated (2x10^6 cells/mL) with LL37 for 7 days and re-stimulated (10 days) with LL37-pulsed (10 µg/mL) autologous-ɣ-irradiated-(30Gy)-PBMCs in T-cell medium in the presence of human/recombinant (hr)IL-2 (Boehringer-Mannheim, Indian, USA). T cell lines-specificity was analyzed by using peptide-pulsed (0.1-10 µg/mL) autologous-irradiated PBMCs (30Gy) or lymphoblastoid-cell-lines (B-LCLs) (150Gy, 33). […]
analyzed by flow-cytometry (after staining by BrdU-detection kit, BD Pharmingen). […] Clones reactivity and HLA-restriction were analyzed using HLA-matched-homozigous B-LCLs, pulsed with […]

Row | Substance | Bcl-6 expression [1] | Ror-ɣt expression [1] | CXCR5 expression by proliferating T-cells [1] | T-cell clone reactivity [2]
1 | LLGDFFR(cit)KSKEKIGKEFKR(cit)IVQR(cit)IKDFLR(cit)NLVPR(cit)TES [cit-LL37, citrullinated LL37 (citrullinated at all five arginin positions)] | could up-regulate Bcl-6 | could upregulate Ror-ɣt expression | significant up-regulation | Other clones proliferated to both native LL37 and cit-LL37
2 | LLGDFFRKSKEKIGKEFKRIVQRIKDFLRNLVPRTES [LL37, native LL37, antimicrobial peptide, 37 aa] | could up-regulate Bcl-6 | could upregulate Ror-ɣt expression | significant up-regulation | Some of the T-cell clones proliferated exclusively after stimulation with native LL37
